In assay [1] the test system is MjHKU4r-CoV-1 PsV. The settings on record: for pIC50: 48 h.
The test system of assay [2] is authentic MjHKU4r-CoV-1. The settings on record: 72 h.
Assay [3] has as its system pseudotyped SARS-CoV-2 (KP.2). To be noted: pseudotyped (KP.2, 48 h).
The test system of assay [4] is MERS-CoV PsV. The settings on record: 48 h.
The test system of assay [5] is authentic HCoV-OC43.
Assay [6] deals with MjHKU4r-S. It counts as cell-based, MjHKU4r-CoV-1. To be noted: for pIC50: read-out: IC50 against MjHKU4r-S-mediated cell-cell fusion.
The subject of assay [7] is pseudotyped SARS-CoV-2 (Delta). To be noted: pseudotyped (Delta, 48 h).
The subject of assay [8] is authentic MjHKU4r-CoV-1. Type of assay: cell-based.
The test system of assay [9] is HCoV-OC43. Details: species or system newborn ICR mice. To be noted: mouse, in vivo.

pIC50: −log10 of the molar value. Positions of bridges follow the written chain, without caps; N, C: chain ends. Non-standard residues stand in square brackets, D forms with d. Residues, ends and D or L forms follow the SMILES beside them. S5 = C=CCCC[C@](C)(N)C(=O)O

Consider `CSCC[C@H](NC(=O)[C@H](C)NC(=O)CNC(=O)[C@H](CC(C)C)NC(=O)[C@H](C)NC(=O)[C@H](CCC(N)=O)NC(=O)[C@H](CC(N)=O)NC(=O)[C@H](Cc1ccccc1)NC(=O)[C@H](CCCCN)NC(=O)[C@H](CC(N)=O)NC(=O)[C@H](C)NC(C)=O)C(=O)N[C@@H](CCC(N)=O)C(=O)N[C@H](C(=O)NCC(=O)N[C@@H](Cc1ccccc1)C(=O)N[C@H](C(=O)N[C@H](C(=O)N[C@@H](CO)C(=O)N[C@@H](CC(N)=O)C(=O)N[C@@H](CC(C)C)C(=O)N[C@@H](C)C(=O)N[C@@H](Cc1ccccc1)C(=O)N[C@@H](CO)C(=O)N[C@@H](CCCCN)C(=O)N[C@H](C(=O)N[C@@H](CCC(N)=O)C(=O)N[C@@H](CC(=O)O)C(=O)N[C@@H](C)C(=O)N[C@H](C(=O)N[C@@H](CC(N)=O)C(=O)N[C@@H](C)C(=O)N[C@@H](CC(N)=O)C(=O)N[C@@H](C)C(=O)N[C@@H](CC(N)=O)C(=O)N[C@@H](C)C(=O)N[C@@H](CC(C)C)C(=O)N[C@@H](CO)C(=O)N[C@@H](CCCCN)C(=O)N[C@@H](CC(C)C)C(=O)N[C@@H](C)C(=O)N[C@@H](CO)C(=O)N[C@@H](CCC(=O)O)C(N)=O)C(C)C)C(C)C)[C@@H](C)O)[C@@H](C)O)[C@@H](C)O` [MjHKU4r-HR1P], for which the pIC50 in assay [1] is less than 5.00; in [2] it was less than 5.30.

For `CC[C@H](C)[C@H](NC(=O)[C@H](C)NC(=O)[C@H](CCSC)NC(=O)[C@H](CCC(=O)O)NC(=O)[C@H](CC(=O)O)NC(=O)[C@H](CO)NC(=O)[C@H](CC(C)C)NC(=O)[C@H](CC(=O)O)NC(=O)[C@H](CC(C)C)NC(=O)[C@H](CC(C)C)NC(=O)[C@@H](NC(=O)[C@@H](NC(=O)[C@H](CC(N)=O)NC(=O)[C@@H](NC(=O)[C@H](CCCCN)NC(=O)[C@H](CO)NC(=O)[C@@H](NC(=O)[C@H](CCC(=O)O)NC(C)=O)[C@@H](C)CC)[C@@H](C)CC)C(C)C)[C@@H](C)O)C(=O)N[C@@H](CC(C)C)C(=O)N[C@@H](CC(C)C)C(=O)N[C@@H](CCC(=O)O)C(=O)N[C@@H](C)C(=O)N[C@H](C(=O)N[C@@H](CCCCN)C(=O)N[C@@H](CCC(N)=O)C(=O)N[C@@H](CC(C)C)C(=O)N[C@@H](CC(N)=O)C(=O)N[C@@H](CC(=O)O)C(=O)N[C@@H](CO)C(=O)N[C@@H](Cc1ccc(O)cc1)C(=O)N[C@H](C(=O)N[C@@H](CC(=O)O)C(=O)N[C@@H](CC(C)C)C(=O)N[C@@H](CCCCN)C(=O)N[C@@H](CCC(=O)O)C(=O)N[C@@H](CC(C)C)C(N)=O)[C@@H](C)CC)[C@@H](C)CC` [MjHKU4r-HR2P9], the “Improvement in inhibition of pseudotyped MjHKU4r-CoV-1 infection compared to original MjHKU4r-HR2P” value in assay [1] worked out at 2.9 fold. For the same molecule, the pIC50 in assay [1] is 7.59; in assay [3], 6.34; in [4], 6.94; in assay [5] it was 5.99; in assay [6] it was 7.99; in assay [7], 6.39.

`CC[C@H](C)[C@H](NC(=O)[C@H](C)NC(=O)[C@H](CCSC)NC(=O)[C@H](CCC(=O)O)NC(=O)[C@H](CC(=O)O)NC(=O)[C@H](CO)NC(=O)[C@H](CC(C)C)NC(=O)[C@H](CC(=O)O)NC(=O)[C@H](CC(C)C)NC(=O)[C@H](CC(C)C)NC(=O)[C@@H](NC(=O)[C@@H](NC(=O)[C@H](CC(N)=O)NC(=O)[C@@H](NC(=O)[C@H](CCCCN)NC(=O)[C@H](CO)NC(=O)[C@@H](NC(=O)[C@H](CCC(=O)O)NC(C)=O)[C@@H](C)CC)[C@@H](C)CC)[C@@H](C)O)[C@@H](C)O)C(=O)N[C@@H](CC(C)C)C(=O)N[C@@H](CCC(N)=O)C(=O)N[C@@H](CCC(=O)O)C(=O)N[C@H](C(=O)N[C@H](C(=O)N[C@@H](CCCCN)C(=O)N[C@@H](CCC(N)=O)C(=O)N[C@@H](CC(C)C)C(=O)N[C@@H](CC(N)=O)C(=O)N[C@@H](CC(=O)O)C(=O)N[C@@H](CO)C(=O)N[C@@H](Cc1ccc(O)cc1)C(=O)N[C@H](C(=O)N[C@@H](CC(=O)O)C(=O)N[C@@H](CC(C)C)C(=O)N[C@@H](CCCCN)C(=O)N[C@@H](CCC(=O)O)C(=O)N[C@@H](CC(C)C)C(N)=O)[C@@H](C)CC)C(C)C)C(C)C` [MjHKU4r-HR2P]: the figures for the pIC50 in [1], in assay [6] and in assay [2] were 7.21, 7.43 and 7.58, respectively. In assay [6], the “Inhibition of MjHKU4r-S-mediated cell-cell fusion at fixed concentration” value is reported as “completely inhibited”. Further, the “Blockage of MjHKU4r-CoV-1 N protein expression (immunofluorescence)” value in [8] is “near-complete blockage”.

With `CC[C@H](C)[C@H](NC(=O)[C@H](C)NC(=O)[C@H](CCSC)NC(=O)[C@H](CCC(=O)O)NC(=O)[C@H](CC(=O)O)NC(=O)[C@H](CO)NC(=O)[C@H](CC(C)C)NC(=O)[C@H](CC(=O)O)NC(=O)[C@H](CC(C)C)NC(=O)[C@H](CC(C)C)NC(=O)[C@@H](NC(=O)[C@@H](NC(=O)[C@H](CC(N)=O)NC(=O)[C@@H](NC(=O)[C@H](CCCCN)NC(=O)[C@H](CO)NC(=O)[C@@H](NC(=O)[C@H](CCC(=O)O)NC(C)=O)[C@@H](C)CC)[C@@H](C)CC)C(C)C)[C@@H](C)O)C(=O)N[C@@H](CC(C)C)C(=O)N[C@@H](CC(C)C)C(=O)N[C@@]1(C)CCCC=CCCC[C@@](C)(C(=O)N[C@@H](CC(C)C)C(=O)N[C@@H](CC(N)=O)C(=O)N[C@@H](CC(=O)O)C(=O)N[C@@H](CO)C(=O)N[C@@H](Cc2ccc(O)cc2)C(=O)N[C@H](C(=O)N[C@@H](CC(=O)O)C(=O)N[C@@H](CC(C)C)C(=O)N[C@@H](CCCCN)C(=O)N[C@@H](CCC(=O)O)C(=O)N[C@@H](CC(C)C)C(N)=O)[C@@H](C)CC)NC(=O)[C@H](CCCCN)NC(=O)[C@H]([C@@H](C)CC)NC(=O)[C@H](C)NC1=O` [MjHKU4r-HR2P10] (Ac-EISKINVTLLDLSDEMAILL[S5]AIK[S5]LNDSYIDLKEL-NH2; staple 21-25), the pIC50 in assay [3] is 7.07; in assay [4], 7.43; in assay [5], 6.32; in assay [7], 6.94. For the same molecule, the Survival rate in assay [9] came out at 66.7%.

For orientation: pIC50 means the negative decadic logarithm of the IC50, by convention in mol/L.

Source of the values: article PMC12432378 (Cell Reports Medicine, 2025).
